Reference: ChEMBL document CHEMBL5532720, “A Potent Solution for Tumor Growth and Angiogenesis Suppression via an ELR+CXCL-CXCR1/2 Pathway Inhibitor” (ACS Med Chem Lett, 2024)
Values after ≈ are worked out from the molar mass of the structure shown. Active and inactive are the calls of the source. The calls are words filed in the database; no cut-off is given here.

Experiments:
[1] = target: CDK7/Cyclin H/MNAT1 (Homo sapiens) (UniProt P51946+P50613+P51948); test: Inhibition of CDK7/cyclin H/MNAT1 (unknown origin) at 10 uM in presence of ATP at Km concentration; format: protein-complex assay
[2] = Genotoxicity in Salmonella typhimurium TA1535 upto 100 uM in presence of S9 fraction by Ames test; format: toxicity, subcellular; details: salmonella enterica subsp. enterica serovar typhimurium, s9, 100 µM
[3] = target: TGF-beta receptor type-2 (Homo sapiens) (UniProt P37173); test: Inhibition of TGFBR2 (unknown origin) at 10 uM in presence of ATP at Km concentration
Sequence of TGF-beta receptor type-2 (Homo sapiens) (P37173 whole entry): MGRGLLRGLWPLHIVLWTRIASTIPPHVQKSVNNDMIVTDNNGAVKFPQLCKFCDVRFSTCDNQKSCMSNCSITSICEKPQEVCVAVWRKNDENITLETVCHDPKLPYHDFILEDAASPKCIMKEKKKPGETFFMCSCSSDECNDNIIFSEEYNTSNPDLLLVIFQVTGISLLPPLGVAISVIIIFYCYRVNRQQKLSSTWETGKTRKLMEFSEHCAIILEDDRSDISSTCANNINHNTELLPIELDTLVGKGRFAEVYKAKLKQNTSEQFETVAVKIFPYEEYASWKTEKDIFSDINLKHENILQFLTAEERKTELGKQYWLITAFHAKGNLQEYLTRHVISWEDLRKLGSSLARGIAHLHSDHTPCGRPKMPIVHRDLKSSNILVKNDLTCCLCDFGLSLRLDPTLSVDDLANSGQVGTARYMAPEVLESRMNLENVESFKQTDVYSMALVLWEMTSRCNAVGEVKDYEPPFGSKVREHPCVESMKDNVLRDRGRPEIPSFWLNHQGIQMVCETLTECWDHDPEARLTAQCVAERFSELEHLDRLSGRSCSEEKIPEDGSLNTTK

[4] = Stability in mouse microsomes assessed as intrinsic clearance; format: ADME, Microsome
[5] = Aqueous solubility of compound in SIF at pH 7.5; format: ADME
[6] = target: Interleukin-1 receptor-associated kinase 4 (Homo sapiens) (UniProt Q9NWZ3); test: Inhibition of IRAK4 (unknown origin) at 10 uM in presence of ATP at Km concentration
Sequence of Interleukin-1 receptor-associated kinase 4 (Homo sapiens) (Q9NWZ3 whole entry): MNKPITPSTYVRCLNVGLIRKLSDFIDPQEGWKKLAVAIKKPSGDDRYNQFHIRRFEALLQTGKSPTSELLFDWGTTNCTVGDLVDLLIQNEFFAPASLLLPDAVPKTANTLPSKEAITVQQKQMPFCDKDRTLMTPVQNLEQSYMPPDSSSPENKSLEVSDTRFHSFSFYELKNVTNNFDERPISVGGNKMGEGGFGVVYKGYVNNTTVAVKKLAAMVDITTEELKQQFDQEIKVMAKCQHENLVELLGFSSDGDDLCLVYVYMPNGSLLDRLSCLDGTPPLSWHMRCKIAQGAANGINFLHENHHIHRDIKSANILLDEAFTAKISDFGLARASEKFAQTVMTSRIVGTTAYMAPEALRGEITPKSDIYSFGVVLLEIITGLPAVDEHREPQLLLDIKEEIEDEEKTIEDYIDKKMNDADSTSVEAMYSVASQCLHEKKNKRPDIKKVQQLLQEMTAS

[7] = AUC (0 to infinity) in NOD SCID mouse at 1 mg/kg, iv; format: ADME, organism-based; details: in vivo
A498 [8] = test: Antimetastatic activity against human A498 cells labeled with vybrant DiD cell-labeling solution xenografted in zebrafish embryo at 1 uM incubated for 72 hrs by fluorescence microscopic imaging analysis; format: functional, cell-based
[9] = target: Ephrin type-A receptor 2 (Homo sapiens) (UniProt P29317); test: Inhibition of EPHA2 (unknown origin) at 10 uM in presence of ATP at Km concentration
Sequence of Ephrin type-A receptor 2 (Homo sapiens) (P29317 whole entry): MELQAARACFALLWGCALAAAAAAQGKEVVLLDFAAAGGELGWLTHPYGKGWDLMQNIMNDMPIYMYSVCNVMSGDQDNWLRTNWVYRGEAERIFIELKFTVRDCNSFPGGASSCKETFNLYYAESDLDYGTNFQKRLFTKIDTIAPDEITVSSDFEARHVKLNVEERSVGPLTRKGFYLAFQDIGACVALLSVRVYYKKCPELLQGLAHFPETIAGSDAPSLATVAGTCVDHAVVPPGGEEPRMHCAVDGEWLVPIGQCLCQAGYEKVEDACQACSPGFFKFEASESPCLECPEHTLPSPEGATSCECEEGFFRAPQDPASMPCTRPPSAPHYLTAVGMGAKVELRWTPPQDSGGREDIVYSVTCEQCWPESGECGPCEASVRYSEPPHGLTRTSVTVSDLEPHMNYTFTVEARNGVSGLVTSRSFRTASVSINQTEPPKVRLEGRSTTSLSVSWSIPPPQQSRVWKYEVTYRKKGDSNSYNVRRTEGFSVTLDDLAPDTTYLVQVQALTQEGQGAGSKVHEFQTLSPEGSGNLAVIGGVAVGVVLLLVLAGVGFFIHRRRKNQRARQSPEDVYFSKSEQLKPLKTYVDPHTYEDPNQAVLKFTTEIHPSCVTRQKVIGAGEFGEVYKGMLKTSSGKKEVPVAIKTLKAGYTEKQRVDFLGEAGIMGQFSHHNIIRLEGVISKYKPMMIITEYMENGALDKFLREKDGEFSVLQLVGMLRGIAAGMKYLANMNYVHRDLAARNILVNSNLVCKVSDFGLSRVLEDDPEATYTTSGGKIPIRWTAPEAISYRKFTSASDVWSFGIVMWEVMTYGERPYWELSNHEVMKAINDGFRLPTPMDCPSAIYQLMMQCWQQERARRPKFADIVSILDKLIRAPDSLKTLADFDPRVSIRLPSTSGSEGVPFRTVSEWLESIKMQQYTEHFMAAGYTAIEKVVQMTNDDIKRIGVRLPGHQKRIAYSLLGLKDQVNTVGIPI

[10] = Genotoxicity in Salmonella typhimurium TA100 upto 100 uM in absence of S9 fraction by Ames test; format: toxicity; details: salmonella enterica subsp. enterica serovar typhimurium, s9, 100 µM
[11] = Antiproliferative activity against human Cisplatin and radiotherapy resistant CAL27RR cells incubated for 48 hrs by XTT assay; format: functional, cell-based
[12] = Toxicity in athymic nude mouse xenografted with human 786-0 cells assessed as effect on behavior at 100 mg/kg, po administered twice daily via gavage for 28 days; format: organism-based; details: in vivo, 672 h, time 28 day
[13] = Tmax in NOD SCID mouse at 200 mg/kg, po; format: ADME, organism-based; details: in vivo
[14] = Lipophilicity, logD of compound at pH 7.4; format: physicochemical; details: buffer
A498 [15] = test: Downregulation of CXCL1 mRNA expression in human A498 cells at 1 to 2.5 uM incubated for 48 hrs by qPCR analysis; format: functional, cell-based; details: dose 1-2.5 µM
[16] = Clearance in NOD SCID mouse at 1 mg/kg, iv; format: ADME, organism-based; details: in vivo
[17] = target: Mitogen-activated protein kinase kinase kinase 3 (Homo sapiens) (UniProt Q99759); test: Inhibition of MAP3K3 (unknown origin) at 10 uM in presence of ATP at Km concentration
CAL-33 = test: Antiproliferative activity against human CAL-33 cells incubated for 48 hrs by XTT assay; format: functional, cell-based; details: CAL-33, 48 h
[18] = Protein binding in mouse plasma; format: ADME, cell-free; details: read-out: PPB (converted)
786-0 = test: Antitumor activity against human 786-0 cells xenografted in athymic nude mouse assessed as tumor growth inhibition at 100 mg/kg, po administered twice daily via gavage for 28 days relative to control; format: functional; details: 786-0, 672 h, time 28 day, read-out: TGI
A498 [19] = test: Downregulation of CXCL5 mRNA expression in human A498 cells at 1 to 2.5 uM incubated for 48 hrs by qPCR analysis; format: functional, cell-based; details: dose 1-2.5 µM
A498 [20] = test: Inhibition of cell invasion in human A498 cells cultured as 3D spheroids at 5 uM measured after 7 days by light microscopic imaging analysis relative to control; format: functional; details: A498, 168 h, time 7 day
[21] = target: Receptor-interacting serine/threonine-protein kinase 2 (Homo sapiens) (UniProt O43353); test: Inhibition of RIPK2 (unknown origin) at 10 uM in presence of ATP at Km concentration
[22] = target: Mitogen-activated protein kinase kinase kinase 11 (Homo sapiens) (UniProt Q16584); test: Inhibition of MAP3K11 (unknown origin) at 10 uM in presence of ATP at Km concentration
[23] = target: Serine/threonine-protein kinase PAK 4 (Homo sapiens) (UniProt O96013); test: Inhibition of PAK4 (unknown origin) at 10 uM in presence of ATP at Km concentration
[24] = target: Interleukin-8 receptors, CXCR1/CXCR2 (Homo sapiens) (UniProt P25025+P25024); test: Inhibition of CXCR1/2 pathway in human A498 cells assessed as reduction in ERK phosphorylation at 2.5 uM incubated for 24 to 48 hrs by immunoblot analysis; format: functional, cell-based; details: time 24-48 hrs
[25] = target: Serine/threonine-protein kinase SIK3 (Homo sapiens) (UniProt Q9Y2K2); test: Inhibition of SIK3 (unknown origin) at 10 uM in presence of ATP at Km concentration
Sequence of Serine/threonine-protein kinase SIK3 (Homo sapiens) (Q9Y2K2 whole entry, looked up): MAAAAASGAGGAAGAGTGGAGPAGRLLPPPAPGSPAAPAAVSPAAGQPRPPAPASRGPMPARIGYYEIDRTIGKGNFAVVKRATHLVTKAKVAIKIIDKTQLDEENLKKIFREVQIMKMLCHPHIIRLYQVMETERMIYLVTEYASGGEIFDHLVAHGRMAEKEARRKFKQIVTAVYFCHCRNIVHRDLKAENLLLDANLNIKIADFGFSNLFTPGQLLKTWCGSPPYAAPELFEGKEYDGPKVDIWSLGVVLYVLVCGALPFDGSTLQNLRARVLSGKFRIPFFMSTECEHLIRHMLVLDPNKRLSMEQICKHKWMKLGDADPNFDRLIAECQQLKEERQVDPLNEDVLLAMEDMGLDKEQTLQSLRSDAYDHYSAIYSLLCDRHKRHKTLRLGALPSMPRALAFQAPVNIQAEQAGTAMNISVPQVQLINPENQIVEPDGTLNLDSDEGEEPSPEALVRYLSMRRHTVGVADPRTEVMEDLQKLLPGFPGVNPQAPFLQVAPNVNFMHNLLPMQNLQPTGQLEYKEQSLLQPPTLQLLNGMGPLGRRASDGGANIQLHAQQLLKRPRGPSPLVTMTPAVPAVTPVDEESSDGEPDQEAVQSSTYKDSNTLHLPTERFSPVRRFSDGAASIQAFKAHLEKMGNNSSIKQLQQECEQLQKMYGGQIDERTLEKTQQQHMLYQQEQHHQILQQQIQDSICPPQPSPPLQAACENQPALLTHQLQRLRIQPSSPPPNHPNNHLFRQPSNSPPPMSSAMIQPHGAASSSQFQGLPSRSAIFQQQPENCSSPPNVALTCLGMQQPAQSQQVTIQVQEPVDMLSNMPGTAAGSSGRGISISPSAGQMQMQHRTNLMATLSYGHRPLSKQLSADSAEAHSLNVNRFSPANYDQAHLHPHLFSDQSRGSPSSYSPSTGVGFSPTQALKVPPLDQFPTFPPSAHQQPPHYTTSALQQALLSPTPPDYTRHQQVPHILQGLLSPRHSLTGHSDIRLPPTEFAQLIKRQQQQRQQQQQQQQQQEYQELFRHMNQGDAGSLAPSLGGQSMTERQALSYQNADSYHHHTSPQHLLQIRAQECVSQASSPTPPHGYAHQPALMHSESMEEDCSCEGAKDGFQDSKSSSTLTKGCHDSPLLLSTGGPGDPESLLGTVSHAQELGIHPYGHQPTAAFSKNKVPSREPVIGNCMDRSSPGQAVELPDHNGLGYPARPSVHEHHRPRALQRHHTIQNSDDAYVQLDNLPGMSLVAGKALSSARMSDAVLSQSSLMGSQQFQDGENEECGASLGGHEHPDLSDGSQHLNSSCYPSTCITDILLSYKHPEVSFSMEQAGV

[26] = Aqueous solubility of compound in PBS; format: physicochemical
[27] = target: Casein kinase I isoform gamma-3 (Homo sapiens) (UniProt Q9Y6M4); test: Inhibition of CSNK1G3 (unknown origin) at 10 uM in presence of ATP at Km concentration
Sequence of Casein kinase I isoform gamma-3 (Homo sapiens) (Q9Y6M4 whole entry, looked up, canonical isoform): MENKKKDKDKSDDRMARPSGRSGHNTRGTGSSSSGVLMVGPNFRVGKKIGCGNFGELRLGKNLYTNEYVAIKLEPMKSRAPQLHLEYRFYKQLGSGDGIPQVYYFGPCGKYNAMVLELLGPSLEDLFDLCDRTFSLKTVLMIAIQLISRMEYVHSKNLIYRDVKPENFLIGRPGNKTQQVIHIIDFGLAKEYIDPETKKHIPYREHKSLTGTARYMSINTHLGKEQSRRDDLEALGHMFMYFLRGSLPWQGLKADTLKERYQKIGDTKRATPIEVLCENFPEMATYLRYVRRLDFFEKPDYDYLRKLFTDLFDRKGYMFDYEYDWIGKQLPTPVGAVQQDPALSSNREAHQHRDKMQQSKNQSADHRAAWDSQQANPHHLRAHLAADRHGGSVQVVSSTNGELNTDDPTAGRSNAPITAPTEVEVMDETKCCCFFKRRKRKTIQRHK

[28] = Stability in human microsomes assessed as compound remaining measured after 1 hrs; format: ADME, Microsome; details: read-out: Stability
[29] = Aqueous solubility of compound in water; format: physicochemical
[30] = AUC (0 to infinity) in NOD SCID mouse at 100 mg/kg, po; format: ADME, organism-based; details: in vivo
[31] = target: Phosphatidylinositol 4-phosphate 5-kinase type-1 gamma (Homo sapiens) (UniProt O60331); test: Inhibition of PIP5K1C (unknown origin) at 10 uM in presence of ATP at Km concentration
[32] = target: Serine/threonine-protein kinase D2 (Homo sapiens) (UniProt Q9BZL6); test: Inhibition of PRKD2 (unknown origin) at 10 uM in presence of ATP at Km concentration
Sequence of Serine/threonine-protein kinase D2 (Homo sapiens) (Q9BZL6 whole entry): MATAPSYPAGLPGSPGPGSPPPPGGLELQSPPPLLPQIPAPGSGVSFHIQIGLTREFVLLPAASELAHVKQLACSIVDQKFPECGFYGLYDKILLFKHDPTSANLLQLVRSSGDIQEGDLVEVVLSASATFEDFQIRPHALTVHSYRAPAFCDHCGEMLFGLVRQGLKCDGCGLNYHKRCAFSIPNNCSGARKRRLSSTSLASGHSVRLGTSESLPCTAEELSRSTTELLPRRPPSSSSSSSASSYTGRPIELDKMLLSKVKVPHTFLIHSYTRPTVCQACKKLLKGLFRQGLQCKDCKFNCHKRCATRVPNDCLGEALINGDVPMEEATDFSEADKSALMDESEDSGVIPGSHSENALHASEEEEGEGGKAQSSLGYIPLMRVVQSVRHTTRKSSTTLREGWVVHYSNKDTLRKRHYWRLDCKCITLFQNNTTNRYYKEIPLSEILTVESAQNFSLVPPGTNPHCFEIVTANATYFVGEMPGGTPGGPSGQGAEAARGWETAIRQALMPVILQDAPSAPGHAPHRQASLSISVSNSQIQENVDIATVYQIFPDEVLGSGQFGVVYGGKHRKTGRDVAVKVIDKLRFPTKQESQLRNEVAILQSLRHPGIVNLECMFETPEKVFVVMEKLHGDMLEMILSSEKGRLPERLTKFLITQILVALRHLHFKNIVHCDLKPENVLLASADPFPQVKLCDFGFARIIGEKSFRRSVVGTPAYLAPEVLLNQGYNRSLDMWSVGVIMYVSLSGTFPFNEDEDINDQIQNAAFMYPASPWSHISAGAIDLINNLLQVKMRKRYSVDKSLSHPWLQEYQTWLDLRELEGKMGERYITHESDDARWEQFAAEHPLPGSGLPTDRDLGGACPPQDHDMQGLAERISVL

[33] = Genotoxicity in Salmonella typhimurium TA1535 upto 100 uM in absence of S9 fraction by Ames test; format: toxicity; details: salmonella enterica subsp. enterica serovar typhimurium, s9, 100 µM
[34] = target: Angiopoietin-1 receptor (Homo sapiens) (UniProt Q02763); test: Inhibition of TEK (unknown origin) at 10 uM in presence of ATP at Km concentration
[35] = target: Serine/threonine-protein kinase TAO1 (Homo sapiens) (UniProt Q7L7X3); test: Inhibition of TAOK1 (unknown origin) at 10 uM in presence of ATP at Km concentration
A498 [36] = test: Antiproliferative activity against human A498 cells incubated for 48 hrs by XTT assay; format: functional, cell-based; details: A498, 48 h
[37] = target: CDK8/Cyclin C (Homo sapiens) (UniProt P49336+P24863); test: Inhibition of CDK8/cyclin C (unknown origin) at 10 uM in presence of ATP at Km concentration; format: protein-complex assay
[38] = Stability in mouse plasma assessed as half-life; format: ADME, cell-free
[39] = AUC (0 to infinity) in NOD SCID mouse at 50 mg/kg, po; format: ADME, organism-based; details: in vivo
[40] = target: Aurora kinase B (Homo sapiens) (UniProt Q96GD4); test: Inhibition of AURKB (unknown origin) at 10 uM in presence of ATP at Km concentration
Sequence of Aurora kinase B (Homo sapiens) (Q96GD4 whole entry): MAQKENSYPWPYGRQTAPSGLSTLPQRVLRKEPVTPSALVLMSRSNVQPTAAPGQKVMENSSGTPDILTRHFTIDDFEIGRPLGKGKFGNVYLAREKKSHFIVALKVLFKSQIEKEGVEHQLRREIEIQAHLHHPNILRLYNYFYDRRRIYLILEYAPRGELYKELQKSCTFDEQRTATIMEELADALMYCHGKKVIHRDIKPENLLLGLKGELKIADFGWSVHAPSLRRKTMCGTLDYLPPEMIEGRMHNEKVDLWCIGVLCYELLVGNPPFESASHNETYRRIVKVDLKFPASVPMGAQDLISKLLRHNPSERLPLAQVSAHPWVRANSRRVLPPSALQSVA

inhibition [1]: inactive
inhibition [3]: inactive
microsomal CLint [4]: < 116 µL/min/mg
solubility [5]: 3 µM (≈ 1.15 µg/mL)
inhibition [6]: inactive
AUC(0-inf) [7]: 433 ng·h/mL
inhibition [9]: inactive
Tmax [13]: 1 h
logD [14]: 2.86
clearance [16]: 39.3 mL/min/kg
inhibition [17]: inactive
fraction unbound [18]: 0.004
inhibition [21]: inactive
inhibition [22]: inactive
inhibition [23]: inactive
inhibition [24]: Active
inhibition [25]: inactive
solubility [26]: 1.9 µM (≈ 0.728 µg/mL)
inhibition [27]: inactive
remaining at 1 h [28]: 71%
solubility [29]: 1.2 µM (≈ 0.46 µg/mL)
AUC(0-inf) [30]: 14200 ng·h/mL
inhibition [31]: inactive
inhibition [32]: inactive
inhibition [34]: inactive
inhibition [35]: inactive
inhibition [37]: inactive
half-life [38]: > 4.82 h
AUC(0-inf) [39]: 8390 ng·h/mL
inhibition [40]: inactive
SMILES: O=C(Nc1cc(Cl)cc(Cl)c1)Nc1nc2ccc([N+](=O)[O-])cc2s1
Activity [2]: Non-Toxic
Activity (A498 [8]): Active
Activity [10]: Non-Toxic
IC50 [11]: 2.5 µM
Activity [12]: Non-Toxic
Activity (A498 [15]): Active
IC50 (CAL-33): 4 µM
inhibition in vivo at 100 mg/kg (786-0): 87%
Activity (A498 [19]): Active
inhibition at 5 µM (A498 [20]): > 75%
Activity [33]: Non-Toxic
IC50 (A498 [36]): 2 µM
